Results from US9499554B2, “Anti-influenza compositions and methods” (priority 2013, dated 2016).
Converted amounts (≈) assume the structure as drawn. Where two headings read alike, the source gives them in different places. Marks after values point to notes of the source that are not given here.

Assays:
[1] = test system: Influenza A H1N1 CA/04/2009 (Pandemic H1N1); assay: microbe, parasite or virus in culture; format: cell-based
[2] = test system: Influenza A H3N2 Brisbane/10/2007; assay: microbe, parasite or virus in culture; format: cell-based
[3] = test system: Influenza A H5N1 VN/1203/2004 Hybrid (on H1N1 backbone); assay: microbe, parasite or virus in culture; format: cell-based
[4] = test system: Influenza B Florida; assay: microbe, parasite or virus in culture; format: cell-based
[5] = test system: Parainfluenza 3 14702 (MA-104 cells); assay: organism not typed; format: cell-based
[6] = test system: Influenza A H1N1 CA/04/2009 (Pandemic H1N1); assay: microbe, parasite or virus in culture; format: cell-based; details: for EC50: Influenza A virus
[7] = test system: Influenza A H3N2 Brisbane/10/2007; assay: microbe, parasite or virus in culture; format: cell-based; details: for EC50: Influenza A virus
[8] = test system: Influenza A H5N1 VN/1203/2004 Hybrid (on H1N1 backbone); assay: microbe, parasite or virus in culture; format: cell-based; remark: listed apart in the source
[9] = test system: Influenza B Florida; assay: microbe, parasite or virus in culture; format: cell-based; details: for EC50: Influenza B virus
[10] = test system: Parainfluenza 3 14702 (MA-104 cells); assay: organism not typed; format: cell-based; remark: listed apart in the source
[11] = test system: A/CA/27/2007 (H1N1); assay: microbe, parasite or virus in culture; format: cell-based; details: Influenza A virus, H1N1, MDCK, read-out: EC50, antiviral activity in MDCK cells
[12] = test system: A/Vic/3/75 (H3N2); assay: microbe, parasite or virus in culture; format: cell-based; details: Influenza A virus, H3N2, MDCK, read-out: EC50, antiviral activity in MDCK cells
[13] = test system: influenza viruses; assay: organism not typed; format: cell-based; details: read-out: EC50 values against the influenza viruses by visual assay
[14] = test system: influenza viruses; assay: organism not typed; format: cell-based; details: read-out: EC50 values against the influenza viruses as measured by NR assay
[15] = test system: influenza virus H3N2 (A/Victoria/3/75); assay: microbe, parasite or virus in culture; format: cell-based; details: H3N2, MDCK; 72 hrs; read-out: Percent Inhibition of Cytopathic Effect
[16] = test system: H3N2 virus (A/Victoria/3/75); parameters: species or system Balb/C mice; details: mouse, in vivo
[17] = test system: H3N2 virus (A/Victoria/3/75); parameters: species or system Balb/C mice; details: mouse, in vivo, po
[18] = test system: MDCK cells; details: dog
[19] = test system: MA-104 cells; details: African green monkey
[20] = test system: MDCK cells; details: dog; remark: listed apart in the source
[21] = test system: MA-104 cells; details: African green monkey; remark: listed apart in the source
[22] = in vivo; details: female, Balb/c, mouse, po, 100 mg/kg

Question: Which “SI, Visual CPE Assay” value [1] does the source give for `Nc1ncnc2c([C@@H]3N[C@H](CO)[C@@H](O)[C@H]3O)c[nH]c12` [compound 1, (2S,3S,4R,5R)-2-(4-Amino-5H-pyrrolo[3,2-d]pyrimidin-7-yl)-5-(hydroxymethyl)pyrrolidine-3,4-diol] here?
Answer: 120

Question: And the EC50 ([1]; Influenza A virus, H1N1, read-out: EC50, Visual CPE Assay)?
Answer: 1.8 µg/mL (≈ 6.79 µM)

Question: What about the “SI, Visual CPE Assay” value [2] of the same molecule?
Answer: 140

Question: And the EC50 ([2]; Influenza A virus, H3N2, read-out: EC50, Visual CPE Assay)?
Answer: 1.8 µg/mL (≈ 6.79 µM)

Question: What about the “SI, Visual CPE Assay” value [3] of the same molecule?
Answer: >1600

Question: What about the “SI, Visual CPE Assay” value [4] of the same molecule?
Answer: 290

Question: What about the EC50 ([4]; Influenza B virus, Influenza B Florida, read-out: EC50, Visual CPE Assay) of the same molecule?
Answer: 1.8 µg/mL (≈ 6.79 µM)

Question: What about the “SI, Visual CPE Assay” value [5] of the same molecule?
Answer: 7.1

Question: What about the EC50 ([5]; MA104, read-out: EC50, Visual CPE Assay) of the same molecule?
Answer: 14 µg/mL (≈ 52.8 µM)

Question: What about the “SI, Neutral Red Uptake Assay” value [6] of the same molecule?
Answer: 120

Question: What about the EC50 ([6]; H1N1, MDCK, read-out: EC50, antiviral activity in MDCK cells) of the same molecule?
Answer: 1.8 µg/mL (≈ 6.79 µM)

Question: What about the EC50 ([6]; H1N1, read-out: EC50, Neutral Red Uptake Assay) of the same molecule?
Answer: 1.8 µg/mL (≈ 6.79 µM)

Question: What about the “SI, Neutral Red Uptake Assay” value [7] of the same molecule?
Answer: 79

Question: What about the EC50 ([7]; H3N2, MDCK, read-out: EC50, antiviral activity in MDCK cells) of the same molecule?
Answer: 5.6 µg/mL (≈ 21.1 µM)

Question: And the EC50 ([7]; H3N2, read-out: EC50, Neutral Red Uptake Assay)?
Answer: 5.6 µg/mL (≈ 21.1 µM)

Question: What about the “SI, Neutral Red Uptake Assay” value [8] of the same molecule?
Answer: 130

Question: What about the “SI, Neutral Red Uptake Assay” value [9] of the same molecule?
Answer: 38

Question: What about the EC50 ([9]; B/Florida, MDCK cells, Table 2, read-out: EC50, antiviral activity in MDCK cells) of the same molecule?
Answer: 1.8 µg/mL (≈ 6.79 µM)

Question: What about the EC50 ([9]; Influenza B Florida, read-out: EC50, Neutral Red Uptake Assay) of the same molecule?
Answer: 1.8 µg/mL (≈ 6.79 µM)

Question: And the “SI, Neutral Red Uptake Assay” value [10]?
Answer: 52

Question: What about the EC50 ([10]; MA104, read-out: EC50, Neutral Red Uptake Assay) of the same molecule?
Answer: 10 µg/mL (≈ 37.7 µM)

Question: What about the EC50 [11] of the same molecule?
Answer: 0.66 µg/mL (≈ 2.49 µM)

Question: And the EC50 [12]?
Answer: 4 µg/mL (≈ 15.1 µM)

Question: What about the EC50 [13] of the same molecule?
Answer: 0.63 to 1.8 µg/mL (≈ 2.37 to 6.79 µM)

Question: What about the EC50 [14] of the same molecule?
Answer: 1.8 to 5.6 µg/mL (≈ 6.79 to 21.1 µM)

Question: What about the inhibition at 1.8 µM [15] of the same molecule?
Answer: 1.6 ± 6.1%

Question: What about the inhibition at 7.8 µM [15] of the same molecule?
Answer: 25.8 ± 4.8%

Question: What about the “Mean day to death (Mean ± SEM)” value [16] of the same molecule?
Answer: >16 days

Question: And the Survival/Total [16]?
Answer: 10/10*

Question: And the “effect on survival and weight loss in infected mice” value [16]?
Answer: improves the survival and weight loss

Question: What about the “effect on survival and weight loss in infected mice” value [17] of the same molecule?
Answer: improves the survival and weight loss

Question: And the “Mean day to death (Mean ± SEM)” value ([17]; 30 mg/kg/day)?
Answer: >16 days

Question: What about the “Mean weight change (grams ± SEM) Day 9” value ([17]; 30 mg/kg/day) of the same molecule?
Answer: −1.58 ± 0.32 grams

Question: And the Survival/Total ([17]; 30 mg/kg/day)?
Answer: 10/10*

Question: What about the “Mean day to death (Mean ± SEM)” value ([17]; 100 mg/kg/day) of the same molecule?
Answer: >16 days

Question: What about the Survival/Total ([17]; 100 mg/kg/day) of the same molecule?
Answer: 10/10*

Question: And the “Mean day to death (Mean ± SEM)” value ([17]; 300 mg/kg/day)?
Answer: >16 days

Question: And the “Mean weight change (grams ± SEM) Day 9” value ([17]; 300 mg/kg/day)?
Answer: 0.66 ± 0.23 grams

Question: And the Survival/Total ([17]; 300 mg/kg/day)?
Answer: 10/10*

Question: And the “IC50 (50% cytotoxic dose), Visual CPE Assay” value [18]?
Answer: >1000 µg/mL

Question: What about the “IC50 (50% cytotoxic dose), Visual CPE Assay” value [19] of the same molecule?
Answer: 100 µg/mL (≈ 377 µM)

Question: What about the “IC50 (50% cytotoxic dose), Neutral Red Uptake Assay” value [20] of the same molecule?
Answer: 130 µg/mL (≈ 490 µM)

Question: And the “IC50 (50% cytotoxic dose), Neutral Red Uptake Assay” value [21]?
Answer: 52 µg/mL (≈ 196 µM)

Question: And the concentration at 0.17 hr [22]?
Answer: 607 ± 61 ng/mL

Question: And the concentration at 0.5 hr [22]?
Answer: 910 ± 122 ng/mL

Question: And the concentration at 1 hr [22]?
Answer: 342 ± 122 ng/mL

Question: And the concentration at 3 hr [22]?
Answer: 89.7 ± 8.5 ng/mL

Question: And the concentration at 5 hr [22]?
Answer: 94.2 ± 6.4 ng/mL

Question: And the concentration at 24 hr [22]?
Answer: 50.5 ± 8.9 ng/mL
